Reference: ChEMBL document CHEMBL4152226, “Novel Mannich bases of α- and γ-mangostins: Synthesis and evaluation of antioxidant and membrane-protective activity” (Eur J Med Chem, 2018)
The source made the active and inactive calls. The calls are words filed in the database; no cut-off is given here.

Key:
[1] = Antioxidant activity assessed as DPPH radical scavenging activity at 10 to 100 uM incubated in dark for 30 mins; type: functional
Erythrocyte [2] = test: Protection against H2O2-induced oxidative stress in mouse RBC assessed as inhibition of hemolysis at 10 uM pretreated for 30 mins followed by H2O2 addition and measured after 5 hrs by malondialdehyde indicator based assay relative to control; type: functional
Erythrocyte [3] = test: Protection against H2O2-induced oxidative stress in mouse RBC assessed as inhibition of hemolysis at 1 uM pretreated for 30 mins followed by H2O2 addition and measured after 5 hrs by malondialdehyde indicator based assay relative to control; type: functional
Erythrocyte [4] = test: Antioxidant activity against H2O2-induced oxidative stress in mouse RBC assessed as inhibition of LPO accumulation at 10 uM pretreated for 30 mins followed by H2O2 addition and measured after 4 hrs by TBARS assay relative to control; type: functional
Erythrocyte [5] = test: Antioxidant activity against H2O2-induced oxidative stress in mouse RBC assessed as inhibition of LPO accumulation at 1 uM pretreated for 30 mins followed by H2O2 addition and measured after 4 hrs by TBARS assay relative to control; type: functional
Erythrocyte [6] = test: Hemolytic activity against mouse RBC at 30 uM measured after 5 hrs by malondialdehyde indicator based assay; type: ADME, cell-based
[7] = Antioxidant activity assessed as DPPH radical scavenging activity at 100 uM incubated in dark for 30 mins relative to control; type: functional
[8] = Metal chelating activity assessed as compound-Fe2+ complex formation at 10 uM after 10 mins by FerrozineTM iron reagent based assay
Erythrocyte [9] = test: Protection against H2O2-induced oxidative stress in mouse RBC assessed as inhibition of hemolysis at 0.05 uM pretreated for 30 mins followed by H2O2 addition and measured after 5 hrs by malondialdehyde indicator based assay relative to control; type: functional
Erythrocyte [10] = test: Antioxidant activity against H2O2-induced oxidative stress in mouse RBC assessed as inhibition of LPO accumulation at 0.05 uM pretreated for 30 mins followed by H2O2 addition and measured after 4 hrs by TBARS assay relative to control; type: functional
[11] = Hemolytic activity against mouse RBC assessed as hemolysis measured after 5 hrs by malondialdehyde indicator based assay relative to control; type: ADME, cell-based, Erythrocyte; conditions: mouse red blood cells (erythrocytes), read-out: Activity

| Structure (SMILES) | Activity [1] | inhibition at 10 µM (Erythrocyte [2]) | inhibition at 1 µM (Erythrocyte [3]) | inhibition at 10 µM (Erythrocyte [4]) | inhibition at 1 µM (Erythrocyte [5]) | Activity (Erythrocyte [6]) | Activity [7] | Activity [8] | inhibition at 0.05 µM (Erythrocyte [9]) | inhibition at 0.05 µM (Erythrocyte [10]) | hemolysis at 5 h [11] |
| --- | --- | --- | --- | --- | --- | --- | --- | --- | --- | --- | --- |
| COc1c(O)c(CN2CCCCCC2)c2oc3c(CN4CCCCCC4)c(O)c(CC=C(C)C)c(O)c3c(=O)c2c1CC=C(C)C | Active | 19% | 35% | 54.1% | 34.8% | Non-Toxic |  |  |  |  |  |
| CCCCNCc1c(O)c(CC=C(C)C)c(O)c2c(=O)c3c(CC=C(C)C)c(OC)c(O)c(CN(C)C)c3oc12 | Active | 50% | 36.8% | 61.5% | 53.5% | Non-Toxic |  |  |  |  |  |
| COc1c(O)cc2oc3c(CN4CCOCC4)c(O)c(CC=C(C)C)c(O)c3c(=O)c2c1CC=C(C)C |  |  |  |  |  |  | 13.1 to 16% |  |  |  |  |
| CC(C)=CCc1c(O)c(CN2CCCCCC2)c2oc3c(CN4CCCCCC4)c(O)c(O)c(CC=C(C)C)c3c(=O)c2c1O | Active |  | 9% | 71.5% |  | Non-Toxic |  | Active | 74.3% | 69% |  |
| COc1c(O)c(CN(C)C)c2oc3c(CN(C)C)c(O)c(CC=C(C)C)c(O)c3c(=O)c2c1CC=C(C)C | Active | 66.3% | 41% | 58.2% | 56.1% | Toxic |  |  |  |  |  |
| COc1c(O)c(CN2CCOCC2)c2oc3c(CN4CCOCC4)c(O)c(CC=C(C)C)c(O)c3c(=O)c2c1CC=C(C)C | Active | 22% | 75.6% | 57.4% | 76.1% | Non-Toxic |  |  |  |  |  |
| CC(C)=CCc1c(O)c(CN2CCOCC2)c2oc3c(CN4CCOCC4)c(O)c(O)c(CC=C(C)C)c3c(=O)c2c1O | Active |  | 6.9% | 68.8% |  | Non-Toxic |  | Active | 79.6% | 78.5% |  |
| COc1c(O)cc2oc3c(CN4CCCCCC4)c(O)c(CC=C(C)C)c(O)c3c(=O)c2c1CC=C(C)C | Active | 10.8% | 27.6% | 48.9% | 51.2% | Non-Toxic |  | Active |  |  |  |
| COc1c(O)cc2oc3cc(O)c(CC=C(C)C)c(O)c3c(=O)c2c1CC=C(C)C [MANGOSTIN] | Active | 44.4 to 46.3% | 60.2 to 60.9% | 59.8 to 67% | 54.2 to 66.9% | Non-Toxic |  |  |  |  |  |
| COc1c(O)cc2oc3c(CN4CCCCC4)c(O)c(CC=C(C)C)c(O)c3c(=O)c2c1CC=C(C)C |  |  |  |  |  |  | 13.1 to 16% |  |  |  |  |
| CC(C)=CCc1c(O)c(CN(C)C)c2oc3c(CN(C)C)c(O)c(O)c(CC=C(C)C)c3c(=O)c2c1O | Active |  | 15.3% | 75.7% |  | Non-Toxic |  | Active | 78% | 67.7% |  |
| COc1c(O)cc2oc3c(CN(C)C)c(O)c(CC=C(C)C)c(O)c3c(=O)c2c1CC=C(C)C |  |  |  |  |  |  | 13.1 to 16% |  |  |  | 63.1% |
| CCCCNCc1c(O)c(CC=C(C)C)c(O)c2c(=O)c3c(CC=C(C)C)c(OC)c(O)cc3oc12 | Active | 31.9% | 46.4% | 70.5% | 60.5% | Non-Toxic |  |  |  |  |  |
| CC(C)=CCc1c(O)cc2oc3cc(O)c(O)c(CC=C(C)C)c3c(=O)c2c1O | Active |  | 15.1% | 68.1% |  | Non-Toxic |  |  | 85.9% | 72.8% |  |
| COc1c(O)cc2oc3c(CN4CCCC4)c(O)c(CC=C(C)C)c(O)c3c(=O)c2c1CC=C(C)C | Active | 17.5% | 29.2% | 68.2% | 56.4% | Non-Toxic |  | Active |  |  |  |
| COc1c(O)c(CN2CCCCCC2)c2oc3c(CN4CCOCC4)c(O)c(CC=C(C)C)c(O)c3c(=O)c2c1CC=C(C)C | Active | 17.7% | 37.5% | 33.6% | 56.1% | Non-Toxic |  |  |  |  |  |
